Reference: patent US20030152597A1, “Use of at least one sapogenin for prevening the skin or ageing symptoms” (priority 2000, published 2003)

Tested on: collagenase produced by Clostridium Histolyticum
Test: Inhibition of collagenase activity (DQ-gelatin fluorescence)
Assay type: biochemical
Conditions: decrease in collagenase activity relative to the control
Experimental: The effect of an extract of wild yam on the inhibition of the activity of collagenase produced by Clostridium Histolyticum was evaluated. Although different from a human enzyme, this collagenase is used on account of its ability to digest human collagen. […]
The control consisted of collagenase without test product. Thus, the activity of the control constitutes 100% collagenase activity and thus 0% inhibition of the said activity.
The products were preincubated with the enzyme for 10 minutes at room temperature, and DQ-gelatin was then added and the fluorescence obtained on degradation of the substrate was recorded for 10 minutes (excitation 480 nm; emission 538 nm) on a SpectraMax spectrofluorimetre (Molecular Devices); the results were processed using Soft Max Pro software.
The percentages indicated represent the decrease in collagenase activity relative to the control.

Structure (SMILES): c1cnc2c(c1)ccc1cccnc12 [Phenanthroline, phenanthroline]
- % inhibition (n = 4) (0.1 mM in ethanol): 96%
- % inhibition (n = 4) (0.25 mM in ethanol): 40%
- % inhibition (n = 4) (0.5 mM in ethanol): 65%
